# Patent US9902986B2, “Enterobactin conjugates and uses thereof” (Massachusetts Institute of Technology, priority 2013, dated 2018)
# Entries after “also recorded” stand apart in the source; their conditions may differ.
# Experiments:
# E. coli CFT073 = assay: Antimicrobial activity assay in the presence of lipocalin 2; format: cell-based, Escherichia coli; conditions: conjugate 100 nM, lcn2 1 μM, M9 minimal media, 37° C., 24 h
# Experimental: The bacterial cultures were grown in modified M9 minimal medium (Blango, M. G.; Ott, E. M.; Erman, A.; Veranic, P.; Mulvey, M. A. Forced Resurgence and Targeting of Intracellular Uropathogenic Escherichia coli Reservoirs. PLoS One 2014, 9, e93327-e93335) (Na2HPO4 6.8 g/L, KH2PO4 3 g/L, NaCl 0.5 g/L, NH4Cl 1 g/L, 0.4% glucose, 2 mM MgSO4, 0.1 mM CaCl2, 0.2% casein amino acids, and 16.5 μg/mL of thiamine) overnight. […] The cultures were serially diluted to an OD600 value of 0.00001 in fresh modified M9 minimal medium. Lipocalin 2 (Lcn2) was diluted into PBS buffer to a concentration of 20 μM upon arrival and frozen at −20° C. until use. Bovine serum albumin (BSA, Sigma-Aldrich) was prepared in PBS buffer to achieve a concentration of 20 μM. […] The bacterial growth was determined by measuring OD600 using the plate reader. […] The resulting mean OD600 was reported, and the error bars were the standard deviation. […] In contrast, Lcn2 had no effect of the antibacterial activity of MGE-Amp, MGE-Amx, DGE-Amp, or DGE-Amx.
# E. coli UTI89 = assay: Competition assay with native siderophores, E. coli UTI89; format: cell-based, Escherichia coli; conditions: conjugate 100 nM, varied Ent, MGE or DGE, 50% MHB, 200 μM DP, 30° C., t=19 h
# Experimental: Ent was synthesized following a literature procedure^55 and stored as DMSO stock solution at −20° C. MGE and DGE were prepared from Ent using MceC and IroB as described for MGE-PEG3-N3 and DGE-PEG3-N3.
# (§1) In an exemplary experiment, select conjugates (Ent-Amp, MGE-Amp, and DGE-Amp) with select native siderophores (Ent, MGE, and DGE) were tested against the uropathogenic strain E. coli UTI89 in 50% MHB, t=19 h, 30° C. […] The concentration of the conjugates was fixed at 100 nM, and the concentration of the native siderophores was varied. […] These observations indicate that Ent, MGE, Ent-Amp, and MGE-Amp may enter via both FepA and IroN with different efficiency, but DGE and DGE-Amp may only enter via IroN.
# as §1, with “In another” for “In an”, “100 nM” for “100 nM,”
# S. aureus ATCC 25923 = assay: Antibacterial activity assay, S. aureus; format: cell-based, Staphylococcus aureus; conditions: iron limitation (200 μM 2,2′-dipyridyl)
# Experimental: No antibiotic marker was included in these cultures. […] Bacterial growth was determined by measuring OD600 using a BIOTEK SYNERGY HT plate reader. Each well condition was prepared in duplicate, and at least three independent replicates were conducted on different days. The resulting mean OD600 are reported and the error bars are the standard deviation.
# Ampicillin and amoxicillin are β-lactam antibiotics that have periplasmic targets in Gram-negative bacteria and inhibit cell wall biosynthesis. The antibacterial activity of Ent-ampicillin and Ent-amoxicillin conjugates 44 and 45 was evaluated in vitro against a panel of Gram-negative and positive-bacteria. FIG. 6 provides exemplary results from antibacterial activity assays against select bacterial species that include non-pathogenic and pathogenic E. coli strains and also Staphylococcus aureus. Under conditions of iron limitation (200 μM 2,2′-dipyridyl), the conjugates provide 100- to 1000-fold improved activity against various E. coli strains, including human pathogens, compared to the unmodified antibiotics.
# E. coli H9049 = assay: Antimicrobial activity assay, E. coli H9049; format: cell-based, Escherichia coli; conditions: 50% MHB, 30° C., t=19 h
# Experimental: (§2) Overnight cultures of the bacterial strains were prepared by inoculating 5 mL of LB with the bacterial freezer stocks and the cultures were incubated at 37° C. in a tabletop incubator shaker set at 150 rpm. The overnight culture grew to saturation and was diluted 1:100 into 5 mL of fresh LB medium containing DP (200 μM) and incubated at 37° C. with shaking at 150 rpm until OD600 reached 0.6. The cultures were subsequently diluted to an OD600 value of 0.001 in 50% MHB medium (11.5 g/L) with or without DP (200 μM). No antibiotic marker was included in these cultures. A 90-μL aliquot of the diluted culture was combined with a 10-μL aliquot of a 10× solution of the tested compounds in a 96-well plate, which was wrapped in […] and incubated at 30° C. with shaking at 150 rpm for 19 h. Bacterial growth was determined by measuring OD600 using a BIOTEK SYNERGY HT plate reader. Each well condition was prepared in duplicate, and at least three independent replicates were conducted on different days. The resulting mean OD600 are reported and the error bars are the standard deviation.
# In another exemplary experiment, antibacterial activities of the conjugates were tested against E. coli H9049 in 50% MHB at 30° C., t=19 h. DP (200 μM) was added to provide conditions of iron limitation.
# [1] = tested on: uropathogenic E. coli and non-pathogenic E. coli; assay: Mixed culture assays (summary), uropathogenic and non-pathogenic E. coli; format: cell-based, Escherichia coli; conditions: uropathogenic with non-pathogenic E. coli
# Excerpt: No antibiotic marker was included in these cultures.
# various E. coli strains = assay: Antibacterial activity against a panel of E. coli strains; format: cell-based, Escherichia coli; conditions: 6 strains of E. coli (K-12, B, H9049, 25922, UTI89, CFT073)
# Experimental: as §2
# Ampicillin and amoxicillin are β-lactam antibiotics that have periplasmic targets in Gram-negative bacteria and inhibit cell wall biosynthesis. The antibacterial activity of Ent-ampicillin and Ent-amoxicillin conjugates 44 and 45 was evaluated in vitro against a panel of Gram-negative and positive-bacteria.
# Select Ent-β-lactam conjugates (Ent-Amp and Ent-Amx) and their glucosylated derivatives (MGE-Amp, MGE-Amx, DGE-Amp, and DGE-Amx) were tested against 6 strains of E. coli. Four of them are non-pathogenic strains, namely K-12, B, H9049, and 25922, and the other two are uropathogenic clinical isolates, namely UTI89 and CFT073.
SMILES,effect of lipocalin-2 (lcn2) on antibacterial activity (E. coli CFT073),attenuation of antibacterial activity by native siderophores (E. coli UTI89),enhancement of activity compared to the unmodified antibiotics (S. aureus ATCC 25923),concentration providing complete growth inhibition (E. coli H9049; 200 μM DP (iron-deficient)) [nM],strain-specific growth inhibition in the mixed culture assays [1],antibacterial activity against uropathogenic compared to non-pathogenic E. coli (various E. coli strains),antibacterial activity at 100 nM (E. coli H9049; 200 μM DP),concentration at which growth inhibition was observed (attributed to iron deprivation) (E. coli H9049; 200 μM DP) [µM],"antibacterial activity, comparison (E. coli H9049; 200 μM DP)"
CC1(C)SC2C(NC(=O)C(NC(=O)CCCc3cn(CCOCCOCCOCCNC(=O)c4cc(O)c(O)c(C(=O)NC5COC(=O)C(NC(=O)c6cccc(O)c6O)COC(=O)C(NC(=O)c6cccc(O)c6O)COC5=O)c4)nn3)c3ccccc3)C(=O)N2C1C(=O)O (stereo not drawn) [Ent-Amp],attenuated in the presence of Lcn2,only attenuated in the presence of Ent or MGE,no enhancement of activity,100,,,,,
CC1(C)SC2C(NC(=O)C(NC(=O)CCCc3cn(CCOCCOCCOCCNC(=O)c4cc(O)c(O)c(C(=O)NC5COC(=O)C(NC(=O)c6cccc(O)c6O)COC(=O)C(NC(=O)c6cccc(O)c6O)COC5=O)c4)nn3)c3ccc(O)cc3)C(=O)N2C1C(=O)O (stereo not drawn) [Ent-Amx],attenuated in the presence of Lcn2,only attenuated in the presence of Ent or MGE,no enhancement of activity,,,,,,
CC1(C)SC2C(NC(=O)C(NC(=O)CCCc3cn(CCOCCOCCOCCNC(=O)c4cc(O)c(O)c(C(=O)NC5COC(=O)C(NC(=O)c6cc(C7OC(CO)C(O)C(O)C7O)cc(O)c6O)COC(=O)C(NC(=O)c6cc(C7OC(CO)C(O)C(O)C7O)cc(O)c6O)COC5=O)c4)nn3)c3ccccc3)C(=O)N2C1C(=O)O (stereo not shown) [DGE-Amp],no effect; also recorded: unaffected; also recorded: not attenuated,"attenuated by Ent, MGE, or DGE",,,specifically inhibited the growth of the uropathogenic E. coli,greater antibacterial activity against the uropathogenic E. coli compared to non-pathogenic E. coli,inactive,10,
CC1(C)SC2C(NC(=O)C(NC(=O)CCCc3cn(CCOCCOCCOCCNC(=O)c4cc(O)c(O)c(C(=O)NC5COC(=O)C(NC(=O)c6cc(C7OC(CO)C(O)C(O)C7O)cc(O)c6O)COC(=O)C(NC(=O)c6cccc(O)c6O)COC5=O)c4)nn3)c3ccccc3)C(=O)N2C1C(=O)O (stereo not shown) [MGE-Amp],no effect; also recorded: unaffected; also recorded: not attenuated,"attenuated by Ent, MGE, or DGE",,,specifically inhibited the growth of the uropathogenic E. coli,greater antibacterial activity against the uropathogenic E. coli compared to non-pathogenic E. coli,inactive,,more active against the bacteria than DGE-Amp
